The source of these data is US5719278A, “Tricyclic benzazepine vasopressin antagonists” (American Cyanamid Company, priority 1996, dated 1998).

The term IC50 denotes the concentration needed to halve the response being measured. Higher therefore signals weaker potency.

This test addresses T1, Rat Hepatic V1 Receptors (Rattus norvegicus, UniProt P30560).
T1 construct: Rat liver plasma membranes expressing the vasopressin V1 receptor subtypes; from tissue; host or cells: rat liver plasma membranes
The test is described as follows: Binding Assay to Rat Hepatic V1 Receptors. To be noted: Rat Hepatic V1 Receptors (no asterisk). The method, then:
Binding Assay to Rat Hepatic V1 Receptors
Rat liver plasma membranes expressing the vasopressin V1 receptor subtypes are isolated by sucrose density gradient according to the method described by Lesko et al., (1973). These membranes are quickly suspended in 50.0 mM Tris.HCl buffer, pH 7.4, containing 0.2% bovine serum albumin (BSA) and 0.1 mM phenylmethylsulfonylfluoride (PMSF) and kept frozen at -70° C. until used in subsequent binding experiments. For binding experiments, the following is added to the wells of a ninety-six well format microtiter plate: 100 μl of 100.0 mM Tris.HCl buffer containing 10.0 mM MgCl2, 0.2% heat inactivated BSA and a mixture of protease inhibitors: leupeptin, 1.0 mg %; aprotinin, 1.0 mg %, 1,10-phenanthroline,2.0 mg %; trypsin inhibitor, 10.0 mg % and 0.1 mM PMSF, 20.0 μl of [phenylalanyl-3,4,5-^3 H] vasopressin (S.A. 45.1 Ci/mmole) at 0.8 nM, and the reaction initiated by the addition of 80 μl of tissue membranes containing 20 μg of tissue protein. The plates are kept undisturbed on the bench top at room temperature for 120 min. to reach equilibrium. Non-specific samples are assayed in the presence of 0.1 μM of the unlabeled antagonist phenylalanylvasopressin, added in 20.0 μl volume to a final incubation volume of 200 μl. Upon completion of binding, the content of each well is filtered off, using a Brandel® cell Harvester (Gaithersburg, Md.). The radioactivity trapped on the filter disk by the ligand-receptor complex is assessed by liquid scintillation counting in a Packard LS Counter, with an efficiency of 65% for tritium. The data are analyzed for IC50 values by the LUNDON-2 program for competition (LUNDON SOFTWARE, Ohio).

T1 sequence (P30560 whole entry): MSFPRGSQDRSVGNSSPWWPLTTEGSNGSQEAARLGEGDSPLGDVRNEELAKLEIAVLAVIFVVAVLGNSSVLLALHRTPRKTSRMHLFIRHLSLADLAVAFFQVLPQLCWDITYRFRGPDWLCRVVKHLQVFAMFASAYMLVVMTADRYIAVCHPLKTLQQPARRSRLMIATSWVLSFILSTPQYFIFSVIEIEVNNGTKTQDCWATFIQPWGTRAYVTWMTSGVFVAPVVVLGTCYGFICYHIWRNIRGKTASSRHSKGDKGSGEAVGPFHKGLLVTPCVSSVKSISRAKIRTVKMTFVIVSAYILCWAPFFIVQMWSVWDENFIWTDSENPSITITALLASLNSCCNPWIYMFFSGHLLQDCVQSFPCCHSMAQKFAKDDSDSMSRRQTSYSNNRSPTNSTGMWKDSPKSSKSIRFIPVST

The compound `O=C(Nc1ccc(C(=O)N2CCc3cn[nH]c3-c3sccc32)cc1)c1ccc(F)cc1Cl` [Example 1, N-[4-[(4,5-Dihydropyrazolo[3,4-d]thieno[3,2-b]azepin-6(1H)-yl)carbonyl]phenyl]-2-chloro-4-fluorobenzamide] showed an IC50 of 2 µM.
